Experimental data: US10106523B2, “Amide compound” (ASTELLAS PHARMA INC., priority 2014, dated 2018)

Target: T1, rat EP1 receptor (Rattus norvegicus, UniProt P70597)
T1 construct: expressed in transfected cells
T1 sequence (P70597 1-405): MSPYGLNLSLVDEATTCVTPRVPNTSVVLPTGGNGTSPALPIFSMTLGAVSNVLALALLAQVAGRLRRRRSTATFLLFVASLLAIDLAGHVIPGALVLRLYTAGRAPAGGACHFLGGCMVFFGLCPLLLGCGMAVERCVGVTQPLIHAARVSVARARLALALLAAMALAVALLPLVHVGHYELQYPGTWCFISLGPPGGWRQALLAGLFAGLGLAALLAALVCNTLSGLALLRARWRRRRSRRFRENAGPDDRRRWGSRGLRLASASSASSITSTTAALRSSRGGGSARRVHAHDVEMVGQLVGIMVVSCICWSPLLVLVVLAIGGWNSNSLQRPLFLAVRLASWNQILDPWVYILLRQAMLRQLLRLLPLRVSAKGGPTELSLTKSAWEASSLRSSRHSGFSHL
Experiment: Selectivity test: antagonistic action on rat EP1 receptor (intracellular Ca2+, HEK-293 cells)
Assay type: cell-based
Conditions: PGE2 100 nmol/L, HEK-293 cells stably expressing rat EP1; read-out: Concentration up to which no inhibitory action of 50% or more on the increase in intracellular Ca2+ concentration due to PGE2 through the rat EP1 receptor
Protocol: Test Example 9: Evaluation Test of Receptor Antagonistic Action on Rat EP1/EP2/EP3 Receptor (Selectivity Test)
The antagonistic action of Compound A on other subtypes ([…], EP2, and EP3) of the rat-derived PGE2 receptor was evaluated. For EP1 and EP3, the intracellular Ca^2+ amount was used as an indicator, and for EP2, the intracellular cAMP amount was used as an indicator, so as to investigate the action of the test compound.
Construction of Rat EP1, EP2, or EP3 Receptor Expressing Vector: A rat EP1 receptor gene (GenBank accession No.: D88751.1), a rat EP2 receptor gene (GenBank accession No.: NM_031088.1), or a rat EP3 receptor gene (GenBank accession No.: NM_012704.1) were inserted respectively into an expression vector pcDNA3.1-V5-His-TOPO (Invitrogen Inc.).
Construction of Cell Stably Expressing Rat EP1, EP2, or EP3 Receptor: […]
The intracellular Ca^2+ concentration was measured using FLIPR tetra (Molecular Devices, LLC.) with the fluorescence intensity of the Dye as an indicator. […] By taking the Ca^2+ concentration when PGE2 was added to a final concentration of 100 nmol/L as 100%, and taking the Ca^2+ concentration when PGE2 was not added as 0%, the Ca^2+ concentration in percentage with a treatment with the compound was calculated.

Cc1nn(Cc2cc3ccccc3cn2)c(C(=O)N[C@@H](C)c2ccc(C(=O)O)cc2)c1Br [Compound A, 4-[(1S)-1-({[4-bromo-1-(isoquinolin-3-ylmethyl)-3-methyl-1H-pyrazol-5-yl]carbonyl}amino)ethyl]benzoic acid]
IC50: > 10 µM
